Source: patent publication US6589563B2 (Nanodelivery, Inc., priority 1999, dated 2003)

System: secretory IgA and serum IgG antibodies
Assay: Oral immunization with OVA nanoparticles, ELISA of secretory IgA and serum IgG antibodies
Format: in vivo, male Sprague-Dawley adult rats
Settings: immunizations at week 0 and week 4
Description: Once the particles were generated and washed they were introduced orally into experimental animals (male Sprague-Dawley adult rats (200-250 g wt., 12-15 weeks old, Harlow). Ten animals were used for each group. About 1 mg of dry weight of nanoparticles in the reaction mixture has been administered orally into the stomach of each animal. The nonloaded (#8) nanoparticles were also administered to control animals, in addition to a soluble antigen (OVA)(#9). ELISA assay of secretory IgA and serum IgG antibodies was carried out as described [Challacombe, et al., Enhanced secretory IgA and systemic IgG antibody response after oral immunization with biodegradable microcapsules containing antigen. Immunology 76: 164-168 (1992)]. Primary and secondary immunization protocol was used, consisting of two immunizations at week 0 and at week 4. […] In another set of experiments nonloaded nanoparticles (no OVA) were separately tested in simulated gastric (pH 2) and intestinal (pH 8.3) solutions for their stability. […] Similar results in terms of antibodies and release characteristics were obtained for tetanus toxoid antigen.

## ovalbumin (egg albumin) [Sol OVA, soluble ovalbumin antigen from Sigma]
Day 28, rats
  Response to oral delivery of nanoparticulate OVA antigen, Mean: 75.0
Day 56, rats
  Response to oral delivery of nanoparticulate OVA antigen, Mean: 550.0
